{"source": "patent US20210055311A1", "about": "“SCREENING METHOD FOR ESTROGENIC AND ANTI-ESTROGENIC ACTIVITY” (BUNDESINSTITUT FÜR RISIKOBEWERTUNG, priority 2018, published 2021)", "key": {"[1]": {"test_system": "MCF7/vBOS cells (DSM ACC3321)", "assay": "Prevention of fulvestrant-induced discontinuous adherens junctions by estrogenic compounds", "format": "cell-based, human", "conditions": "for prevention of the formation of discontinuous adherens junctions: along with 10^−8 M fulvestrant; for minimal concentration preventing the fulvestrant-induced phenotype: co-treatment with 10^−8 M fulvestrant, 48 h", "protocol": "Briefly, MCF7/vBOS cells were grown on glass coverslips in multi-well tissue culture plates (TPP) for 24 h and then treated for 48 h with 0.1% EtOH (solvent control), the anti-estrogen fulvestrant in the fixed concentration of 10^−8 M and different concentrations (10^−10 M, 10^−9 M, 10^−8 M, 10^−7 M) of the ERα agonist 17β-estradiol. The solvent control was used as a positive control and fulvestrant at a concentration of 10^−8 M without 17β-estradiol addition was used as a negative control. Sample preparation and immunofluorescence microscopy was performed as described in example 2 above. After 48 hours the fraction of cells displaying discontinuous adherens junctions was determined by CellProfiler/CellProfer-analyst software (see example 7).\nThe same protocols as in example 2 were used with the following deviations: • Bisphenol A: Cells were grown for 24 h and then treated for 48 h with 10^−8 M fulvestrant and 10^−5 or 10^−4 M bisphenol A, respectively, diluted in DSMO. • Nonylphenol: Cells were grown for 24 h and then treated for 48 h with 10^−8 M fulvestrant and 10^−5 or 10^−4 nonylphenol, respectively, diluted in ethanol.\nBriefly, cell culture, sample preparation and immunofluorescence microscopy was performed as described in example 2 (ERα signalling inhibition (fulvestrant titration)) and example 5 (ERα signalling restoration (fulvestrant at 10^−8 M in combination with 17β-estradiol titration))..\nSubsequently, quantitative image analysis was performed using a pipeline that builds on the CellProfiler software (Carpenter et al., Genome Biol., 2006; 7(10):R100.) for segmentation and extraction of cellular parameters, and on the CellProfiler Analyst software (Jones et al., BMC Bioinformatics, 2008 Nov. 15; 9:482) for parameter-based classification of cells. In the segmentation process, primary objects (nuclei) were identified from DAPI staining by global thresholding using Otsu's method. Next, primary objects served as seeding points for identification of secondary objects (cell membranes) at a defined distance. Finally, tertiary objects (cytoplasm) were defined by subtracting primary from secondary objects. The resulting object masks were then applied to extract cellular parameters including area, shape, distribution and variation of pixel intensities, and mean intensity from the corresponding greyscale images using the CellProfiler MeasureObjectSizeShape, MeasureObjectRadialDistribution, MeasureTexture, and MeasureObjectIntensity modules, and stored in a database file. This database file was then imported into the Classifier module of the CellProfiler Analyst software for supervised training with a subset of cells, and subsequent parameter-based automatic classification of all cells within the entire image dataset. For immunofluorescence images, supervised training based on cell membrane features (E-Cad channel) was conducted with two classes representing continuous adherens junctions (Continuous AJs') and discontinuous adherens junctions (Discontinuous AJs′) (about 30 cells for each class). After the supervised training process had been completed, the entire image dataset from a specific experiment was evaluated and all identified cells were automatically classified into corresponding classes according to their individual parameters. The fraction of cells representing ‘Continuous AJs’ and ‘Discontinuous AJs’ classes were finally graphically represented in stacked bar plots."}, "[2]": {"test_system": "MCF7/vBOS cells (DSM ACC3321)", "assay": "Formation of discontinuous basolateral adherens junctions upon anti-estrogen exposure (E-Cadherin immunofluorescence)", "format": "cell-based, human", "conditions": "for Concentration (M) suitable for manifestation of the discontinuous basolateral adherens junctions phenotype / Culture time (h) typically required for formation of discontinuous basolateral adherens junctions: cell as deposited under DSM ACC3321; for formation of discontinuous adherens junctions (E-Cadherin staining): concentration and incubation time per compound as in FIGS. 1-3", "text": "The time usually required for formation of discontinuous basolateral adherens junctions will depend on the estrogen receptor binding affinity and concentration of the anti-estrogen used on the one hand and the cell used on the other hand, but a person skilled in the art will be readily capable of determining the appropriate time spans and concentration for a given anti-estrogen and cell. For example, if the cell is a cell as deposited under accession number DSM ACC3321, suitable concentration ranges and culture times for manifestation of the discontinuous basolateral adherens junctions phenotype in presence of fulvestrant, tamoxifen, ZK 164015, MPP dihydrochloride, and (Z)-4-hydroxytamoxifen, without being limited thereto, are:\nMCF7/vBOS cells were grown on glass coverslips in multi-well tissue culture plates (TPP) for 24 h and then treated for at least 48 h with 0.1% EtOH (solvent control) and different concentrations (10^−11 M, 10^−10 M, 10^−9 M, 10^−8 M, 10^−7 M) of the ERα antagonist fulvestrant (Sigma-Aldrich, CAS-No. 129453-61-8). During experiments, medium was exchanged on a daily basis. All experiments were performed at 37° C. with 5% CO2 in reduced-serum medium (phenol red-free DMEM (Gibco), 5% FBS (Biochrom, S 0615, LOT1353 W), 1% glutamine, 100 μg/ml streptomycin/100 U/ml penicillin (Biochrom)).\nAfter treatment with fulvestrant the adherens junction morphology of the cells was analysed by means of immunofluorescence microscopy. Briefly, cells were fixed with 3.7% formaldehyde in PBS for 15 min, permeabilized with 0.2% Triton X-100 in PBS for 30 min, and blocked with 5% FBS in PBS for 60 min (all steps at room temperature). Incubation with primary and secondary antibodies in PBS containing 1.5% BSA was carried out over night at 4° C. and for 1 h at room temperature, respectively. The following antibodies/dyes were used: anti-E-Cadherin (H-108, Santa Cruz); DAPI (Roche); secondary antibody conjugated to Cy3 (alternatives are, e.g.: Cy2, Alexa Fluor 488/555/647; all Invitrogen). The samples were then mounted in Dako fluorescence mounting medium (Dako) or VectaShield (Vector Labs). All images were acquired with an Axio Observer.Z1 widefield microscope equipped with an Apotome.2 device for optical sectioning using structured illumination (Zeiss). After 48 hours the fraction of cells displaying discontinuous adherens junctions was determined by CellProfiler/CellProfer-analyst software (see example 7).\nIn view of the results obtained with MCF7/vBOS cells upon exposure to fulvestrant the inventors speculated that a similar phenotype might be obtainable with other ERα antagonist as well. To test this hypothesis, the inventors used the ERα antagonists tamoxifen (Sigma-Aldrich, CAS-No. 10540-29-1), MPP dihydrochloride (Sigma-Aldrich, CAS-No. 911295-24-4), ZK164015 (Tocris, CAS-No. 177583-70-9), and (Z)-4-hydroxytamoxifen (Tocris, CAS-No. 68047-06-3). The same protocols as in example 2 were used with the following deviations: • Tamoxifen: Cells were grown for 24 h and then treated for 144 h with 10^−8 and 10^−6 M tamoxifen. • MPP dihydrochloride: Cells were grown for 24 h and then treated for 144 h with 10^−8 and 10^−6 M MPP dihydrochloride. • ZK164015: Cells were grown for 24 h and then treated for 48 h with 10^−9 and 10^−7 M ZK164015. • (Z)-4-hydroxytamoxifen: Cells were grown for 24 h and then treated for 72 h with 10^−9 and 10^−8 M (Z)-4-hydroxytamoxifen.\nSubsequently, quantitative image analysis was performed using a pipeline that builds on the CellProfiler software (Carpenter et al., Genome Biol., 2006; 7(10):R100.) for segmentation and extraction of cellular parameters, and on the CellProfiler Analyst software (Jones et al., BMC Bioinformatics, 2008 Nov. 15; 9:482) for parameter-based classification of cells. In the segmentation process, primary objects (nuclei) were identified from DAPI staining by global thresholding using Otsu's method. […]"}}, "data": [{"compound": "C[C@]12CC[C@@H]3c4ccc(O)cc4CC[C@H]3[C@@H]1CC[C@@H]2O", "note": "[17β-estradiol]", "values": [{"measurement": "fraction of cells with continuous adherens junctions (CellProfiler quantification)", "setting": "[1]; 10^−8 M fulvestrant plus different concentrations, 48 hours", "value": "restores the fraction of cells with continuous adherens junctions"}, {"measurement": "prevention of the formation of discontinuous adherens junctions", "setting": "[1]", "value": "prevention of the formation of discontinuous adherens junctions"}, {"measurement": "minimal concentration preventing the fulvestrant-induced phenotype", "setting": "[1]", "value": "10^−9 M"}]}, {"compound": "Cc1c(-c2ccc(O)cc2)nn(-c2ccc(O)cc2)c1-c1ccc(OCCN2CCCCC2)cc1.Cl.Cl", "note": "[MPP dihydrochloride]", "values": [{"measurement": "Concentration (M) suitable for manifestation of the discontinuous basolateral adherens junctions phenotype", "setting": "[2]", "value": "10^−6-10^−5 M"}, {"measurement": "Culture time (h) typically required for formation of discontinuous basolateral adherens junctions", "setting": "[2]", "value": "30 to 168", "unit": "h"}, {"measurement": "formation of discontinuous adherens junctions (E-Cadherin staining)", "setting": "[2]", "value": "Discontinuous adherens junctions became apparent"}]}, {"compound": "CCCCCS(=O)(=O)CCCCCCCCCCn1c(-c2ccc(O)cc2)c(C)c2cc(O)ccc21", "note": "[ZK 164015]", "values": [{"measurement": "Concentration (M) suitable for manifestation of the discontinuous basolateral adherens junctions phenotype", "setting": "[2]", "value": "10^−7-10^−5 M"}, {"measurement": "Culture time (h) typically required for formation of discontinuous basolateral adherens junctions", "setting": "[2]", "value": "24 to 96", "unit": "h"}, {"measurement": "formation of discontinuous adherens junctions (E-Cadherin staining)", "setting": "[2]", "value": "Discontinuous adherens junctions became apparent"}]}, {"compound": "CC/C(=C(\\c1ccccc1)c1ccc(OCCN(C)C)cc1)c1ccccc1", "note": "[Tamoxifen]", "values": [{"measurement": "Concentration (M) suitable for manifestation of the discontinuous basolateral adherens junctions phenotype", "setting": "[2]", "value": "10^−6-10^−5 M"}, {"measurement": "Culture time (h) typically required for formation of discontinuous basolateral adherens junctions", "setting": "[2]", "value": "30 to 168", "unit": "h"}, {"measurement": "formation of discontinuous adherens junctions (E-Cadherin staining)", "setting": "[2]", "value": "Discontinuous adherens junctions became apparent"}]}, {"compound": "CC/C(=C(\\c1ccc(O)cc1)c1ccc(OCCN(C)C)cc1)c1ccccc1", "note": "[(Z)-4-hydroxytamoxifen]", "values": [{"measurement": "Concentration (M) suitable for manifestation of the discontinuous basolateral adherens junctions phenotype", "setting": "[2]", "value": "10^−9-10^−7 M"}, {"measurement": "Culture time (h) typically required for formation of discontinuous basolateral adherens junctions", "setting": "[2]", "value": "48 to 144", "unit": "h"}, {"measurement": "formation of discontinuous adherens junctions (E-Cadherin staining)", "setting": "[2]", "value": "Discontinuous adherens junctions became apparent"}]}, {"compound": "CC(C)(c1ccc(O)cc1)c1ccc(O)cc1", "note": "[bisphenol A]", "values": [{"measurement": "prevention of the formation of discontinuous adherens junctions", "setting": "[1]", "value": "prevention of the formation of discontinuous adherens junctions"}, {"measurement": "minimal concentration preventing the fulvestrant-induced phenotype", "setting": "[1]", "value": "10^−5 M"}]}, {"compound": "nonylphenol", "values": [{"measurement": "prevention of the formation of discontinuous adherens junctions", "setting": "[1]", "value": "prevention of the formation of discontinuous adherens junctions"}, {"measurement": "minimal concentration preventing the fulvestrant-induced phenotype", "setting": "[1]", "value": "10^−5 M"}]}]}
